Measured values as given in patent US9683009B2, “Bone-selective osteogenic oxysterol-bone targeting agents” (The Regents of the University of California, priority 2013, dated 2017).

Legend:
[1] = in vitro hydroxyapatite (HAP) binding assay; details: for % Binding to Hydroxyapatite: 20 μM analyte, HAP 50 mg/mL, 50 mM Tris-HCl pH 7.5, 20% DMSO, 10 minutes; for binding to HAP (in words): in vitro, estradiol at 20 μM
Procedure: An in vitro HAP binding assay was conducted as follows. A 1 mM solution of each analyte was made in 100% dimethylsulfoxide (DMSO). A further dilution was then made to form a 20 μM solution of each analyte in 50 mM Tris-HCl Buffer at pH 7.5 with 20% DMSO. […] The HAP concentration used was 50 mg/mL.
For each analyte, samples were prepared in triplicate. The control samples (1 mL of 20 μM analyte) were transferred into a microcentrifuge tube. To a second set of samples (1 mL of 20 μM analyte) in a microcentrifuge tube was added 50 mg of HAP. The samples were vortexed, gently mixed with inversion for 10 minutes at room temperature, and then centrifuged at 4,400 rpm for 2 minutes to sediment the HAP contained in the samples. The supernatant was transferred to another set of microcentrifuge tubes.
An electronic spectral scan (ultraviolet-visible) from 220-520 nm was obtained for each analyte using a Bio-Rad Smart-Spec 3000. The blank was 50 mM Tris-HCl Buffer, pH 7.5, 20% DMSO. The wavelength of maximum absorbance (λmax) was determined, and the extinction coefficient (ε) was calculated using the Beer-Lambert Law.
The absorbance of the samples incubated with HAP was measured at λmax and the molar concentration of the analyte was then determined using the Beer-Lambert Law and the previously calculated ε. The concentration of the analytes 17β-estradiol, Oxy149, Oxy153, and Oxy155 without and with contact with HAP is shown in FIG. 10.
The fraction of analyte absorbed to HAP for each sample was subsequently calculated using the following formula for % binding, (Ho−H)/Ho*100=% binding with Ho being the mean concentration of control samples and H being the mean calculated concentration of samples treated with HAP.

[2] = test system: M2-10B4 bone marrow stromal cells; experiment: osteogenic differentiation / ALP enzymatic activity in M2-10B4 bone marrow stromal cells; type: cell-based; details: M2-10B4 cells; for ALP Activity: ± SD; for EC50: read-out: EC50 based on activation of ALP
Procedure: Osteogenic differentiation was assessed by the induction of alkaline phosphatase (ALP) enzymatic activity, as well as induced expression of osteogenic differentiation marker genes ALP, bone sialoprotein (BSP), and osterix (OSX).

[3] = half-life in human liver microsomes; type: in vitro ADME; details: read-out: half-life in human liver microsomes (HLM)
Description: Naturally-occurring oxysterols, 20(S)-hydroxycholesterol, 22(S)-hydroxycholesterol and 22(R)-hydroxycholesterol can be used as potential osteogenic agents (Kha; Richardson; Amantea). A series of potent osteogenic oxysterol analogues was identified, which are efficacious both in vitro and in vivo. Members of this family of semi-synthetic oxysterols induce robust bone formation and spine fusion in rats when applied locally between transverse processes via a collagen sponge (T. S. Johnson). The compound OXY133 is an analog in the series with enhanced osteogenic activity (FIG. 1) (Montgomery). Oxy133 can induce osteogenesis in cultured human primary mesenchymal stem cells and induce spine fusion in rats in an accelerated manner compared to other analogues. Oxy133 can induce robust osteogenesis in non-rodent models of bone disease such as rabbit spine fusion and rabbit calvarial defect models. Oxy133 is a drug development candidate for local administration with potential application in spine fusion and repair of non-union fractures. […] Furthermore, due to the possible mechanism of osteogenesis, a transient activation of the Hh-pathway in MSCs, increasing selectivity for bone tissue while minimizing the exposure to other tissues may be prudent. This can be accomplished by linking a bone targeting agent (BTA) to the oxysterol molecule that selectively delivers it to bone.

C3H10T1/2 cells = experiment: alkaline phosphatase activity in C3H10T1/2 cells after 4 days of treatment; type: cell-based; details: 1 μM
Procedure: [drawing 19] (In Oxy133 the 6-hydroxyl group is more reactive toward succinic anhydride than the 3-hydroxyl.) The resulting conjugate, OXY149, retains most of the osteogenic activity of the parent Oxy133 in C3H10T1/2 cells determined by the level of induction of osteogenic differentiation marker, alkaline phosphatase activity after 4 days of treatment (Control: 2±1; Oxy133 (1 μM): 390±10; Oxy149 (1 μM): 100±12; Oxy149 (5 μM): 500±18; Oxy149 (10 μM); 480±12; Oxy149 (20 μM): 470±25). BTA-linker 1 can be attached via the 3- and/or 6-positions of OXY133 using tunable linker attachments.

Hedgehog (Hh) signaling = experiment: Hedgehog signaling activation: expression of Hh target genes Ptch and HIP in M2-10B4 cells; type: cell-based
Procedure: The expression of Ptch gene in M2-10B4 cells in vitro 4 days after initial contact with each oxysterol at a concentration of 1 μM is shown in FIG. 8. The expression of HIP gene in M2-10B4 cells in vitro 4 days after initial contact with each oxysterol at a concentration of 1 μM is shown in FIG. 9.

[4] = oxysterol + cyclopamine (Cyc; 5 μM)

Row | Compound | % Binding to Hydroxyapatite [1] [%] | binding to HAP (in words) [1] | ALP Activity ([2]; oxysterol 1 μM) [units/mg protein] | ALP Activity [2, 4] [units/mg protein] | half-life [3] [min] | alkaline phosphatase activity (C3H10T1/2 cells) | activation of Hedgehog (Hh) signaling by induced expression of Ptch and HIP (Hedgehog (Hh) signaling) | osteogenic differentiation (ALP activity, ALP, BSP, OSX gene expression) [2] | EC50 [2] [nM]
1 | C[C@]12CC[C@@H]3c4ccc(O)cc4CC[C@H]3[C@@H]1CC[C@@H]2O [17β-estradiol, reference compound] | −1.95 | no binding to HAP |  |  |  |  |  |  | 
2 | CCCCCC[C@](C)(O)[C@H]1CC[C@H]2[C@@H]3C[C@H](O)[C@H]4C[C@@H](O)CC[C@]4(C)[C@H]3CC[C@@]21C [Oxy133, reference compound] |  |  | 714 ± 5 | 31 ± 7 | < 5 | 390±10 |  |  | 
3 | CCCCCCC(C)(O)C1CCC2C3CC(OC(=O)C(N)CC(=O)NCCOCCOCC(=O)Nc4ccc(OC)c(C(N)=O)c4O)C4CC(O)CCC4(C)C3CCC21C (stereo not shown) [Oxy154] |  | can bind hydroxyapatite (HAP) | 390 ± 68 | 18 ± 2 |  |  | activate Hedgehog (Hh) signaling | induce osteogenic differentiation | 630
4 | CCCCCCC(C)(O)C1CCC2C3CC(OC(=O)C(N)CC(=O)NCCOCCOCC(=O)Nc4ccc(OC)c(C(N)=O)c4O)C4CC(OC(=O)C(N)CC(=O)NCCOCCOCC(=O)Nc5ccc(OC)c(C(N)=O)c5O)CCC4(C)C3CCC21C (stereo not shown) [Oxy155] | 76.68 | can bind hydroxyapatite (HAP) | 582 ± 8 | 39 ± 2 |  |  | activate Hedgehog (Hh) signaling | induce osteogenic differentiation | 330
